# Reference: patent US7674815B2, “Heteroaryl and benzyl amide compounds” (Hoffmann-La Roche Inc., priority 2006, dated 2010)
# Molecular target: T1, cholesteryl ester transfer protein (CETP) (Homo sapiens, UniProt P11597)
# T1 construct: the source of CETP was human lipoprotein-deprived serum (LPDS); from tissue; host or cells: human lipoprotein-deprived serum (LPDS)
# T1 sequence (P11597 18-493): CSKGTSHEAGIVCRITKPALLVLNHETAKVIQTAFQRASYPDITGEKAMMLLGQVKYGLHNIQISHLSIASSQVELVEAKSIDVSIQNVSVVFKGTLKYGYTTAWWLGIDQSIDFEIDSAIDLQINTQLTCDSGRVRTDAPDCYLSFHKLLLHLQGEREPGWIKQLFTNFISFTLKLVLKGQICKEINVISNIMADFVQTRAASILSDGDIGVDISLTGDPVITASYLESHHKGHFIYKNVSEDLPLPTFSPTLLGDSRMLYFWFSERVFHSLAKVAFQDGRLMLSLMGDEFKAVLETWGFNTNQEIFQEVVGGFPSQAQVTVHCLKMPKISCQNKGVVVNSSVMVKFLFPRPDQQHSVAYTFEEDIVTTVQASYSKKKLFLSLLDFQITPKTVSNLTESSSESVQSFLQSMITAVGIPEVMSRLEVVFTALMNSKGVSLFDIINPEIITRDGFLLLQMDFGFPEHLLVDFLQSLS
# Assay: CETP inhibition SPA assay in the presence of plasma (CETP source human lipoprotein-deprived serum)
# Format: biochemical
# Details: source of CETP human lipoprotein-deprived serum (LPDS), radiolabeled cholesteryl ester transfer HDL to LDL
# Method: Activity of CETP inhibitors was determined using a buffer assay system. Partially purified CETP transferred radiolabeled cholesteryl ester from HDL donor particles to biotin-labeled LDL acceptor particles. The reaction was stopped by addition of streptavidin-coupled scintillation proximity assay (SPA) beads. These beads captured the biotinylated acceptor particles and transferred radioactivity was measured. The assay system was purchased and performed according to manufacturer's recommendations (Amersham Biosciences). Inhibitory activity of compounds was determined as percentage of positive control activity containing CETP together with donor and acceptor particles. Serial dilution of compounds was performed in order to determine the IC50 values.
# Activity of the compounds was subsequently measured in the presence of plasma using the same assay as described above except that the source of CETP was human lipoprotein-deprived serum (LPDS). Inhibitory activity of compounds was determined as percentage of positive control activity containing all the assay components except compound. Serial dilution of compounds was performed in order to determine the IC50 values.
row,IC50 [µM],Structure (SMILES)
1,7.02,"O=C(c1cc(Cl)cc2cc[nH]c12)N(CCc1ccc(Cl)c(Cl)c1)Cc1cc2ccccc2o1 [Compound 1, 5-chloro-1H-indole-7-carboxylic acid benzofuran-2-ylmethyl-[2-(3,4-dichloro-phenyl)-ethyl]-amide]"
2,0.282,"CNc1cnc(Cl)cc1C(=O)N(CCc1ccc(Cl)c(Cl)c1)Cc1ccc(C(C)(C)C)nc1 [Compound 38, N-(6-tert-butyl-pyridin-3-ylmethyl)-2-chloro-N-[2-(3,4-dichloro-phenyl)-ethyl]-5-methylamino-isonicotinamide]"
3,0.056,"CNc1ncc(Cl)cc1C(=O)N(CCc1cccc(C(F)(F)F)c1)Cc1ccc(C(C)(C)C)s1 [Compound 53, N-(5-tert-butyl-thiophen-2-ylmethyl)-5-chloro-2-methylamino-N-[2-(3-trifluoromethyl-phenyl)-ethyl]-nicotinamide]"
